Results from article PMC4824752 (Structure (London, England : 1993), 2015).

Legend:
[1] = test system: human muscle-type nAChR C418W; format: cell-based; details: C418W relative to wild type
[2] = test system: ELIC with the entire aromatic network of GLIC; format: cell-based; details: read-out: EC50, concentration of cysteamine to elicit half maximal channel gating, oocytes
ELIC L308W = ELIC L308W (Dickeya chrysanthemi, UniProt P0C7B7, L308W); test: Two-electrode voltage clamp dose response to cysteamine, ELIC L308W mutant; format: cell-based
ELIC G318F/V260Y = ELIC G318F/V260Y (Dickeya chrysanthemi, UniProt P0C7B7, G318F/V260Y); format: cell-based; details: read-out: EC50, concentration of cysteamine to elicit half maximal channel gating; ELIC G318F/V260Y double mutant, oocytes
wild type ELIC = wild type ELIC (Dickeya chrysanthemi, UniProt P0C7B7); format: cell-based; details: read-out: EC50, concentration of cysteamine to elicit half maximal channel gating, oocytes, whole cell currents
ELIC I319F/V260Y = ELIC I319F/V260Y (Dickeya chrysanthemi, UniProt P0C7B7, I319F/V260Y); format: cell-based; details: read-out: EC50, concentration of cysteamine to elicit half maximal channel gating; ELIC I319F/V260Y double mutant, oocytes
[3] = test system: GLIC aromatic-to-Ala mutants at the M4-M1/M3 interface; details: Fig. S4
[4] = test system: ELIC aliphatic-to-aromatic mutants at the M4-M1/M3 interface; details: Fig. S4

## CC(=O)OCC[N+](C)(C)C [acetylcholine]
[1]
  potentiation of nAChR channel function by C418W (EC50 wild type vs C418W): roughly 25 fold

## NCCS [cysteamine]
[2]
  EC50: 150 ± 40 µM
ELIC L308W; L308W relative to wild type ELIC
  magnitude of the L308W gain of function relative to the wild type ELIC: ~5 fold
ELIC L308W; read-out: EC50, concentration of cysteamine to elicit half maximal channel gating, ELIC L308W, oocytes
  EC50: 290 ± 50 µM
ELIC G318F/V260Y
  EC50: 130 µM
Wild type ELIC
  EC50: 940 ± 160 µM
ELIC I319F/V260Y
  EC50: 130 µM

## CC(C)c1cccc(C(C)C)c1O [propofol, 2,6 diisopropylphenol]
[3]
  effect of aromatic-to-Ala substitutions on propofol inhibition: None of the aromatic-to-Ala substitutions at the M4-M1/M3 interface of GLIC or the aliphatic-to-aromatic substitutions at the same interface in ELIC, however, had a major effect on propofol inhibition
[4]
  effect of aliphatic-to-aromatic substitutions on propofol inhibition: None of the aromatic-to-Ala substitutions at the M4-M1/M3 interface of GLIC or the aliphatic-to-aromatic substitutions at the same interface in ELIC, however, had a major effect on propofol inhibition
